# Results: PubChem BioAssay AID1508591
# Settings: rat; liver microsomes; pH 7.4; 15.0 min; 1.0 µM
row,SMILES,half-life
1,Cc1nn2c(c1-c1ccccc1-c1ccccc1)N(CCC(C)C)CCC2,1.31 min
2,CNc1oc(-c2ccc(-c3ccccc3)cc2)nc1C#N,> 30 min
3,Cc1cccc(N2CCN(C(=O)c3ccc4c(c3)C(O)CCCCCN4C)CC2)c1 (stereo not given),1.28 min
4,CC1=C(C(=O)NC2CCCCC2)C(c2ccccc2Br)N=C(Nc2nc3ccccc3o2)N1 (stereo not given),7.4 min
5,C[C@H]1CN(C(=O)c2nn(C)c3ccccc23)C[C@@H]1c1nc(-c2cccnc2)no1,4.4 min
6,CCOc1ccc(CCNC(=O)c2cc3cnccc3n2Cc2cccc(C)c2)cc1OCC,6.9 min
7,CCCCc1ccc(NC(=O)c2ccc3c(c2)N(S(C)(=O)=O)CC3)cc1,4.38 min
8,Cc1ccccc1C(C(=O)NC1CCCCC1)N(C(=O)Cn1ccnc1C)c1cccc(F)c1 (stereo not given),5.62 min
9,COc1cccc(CNc2ccc(S(=O)(=O)Nc3ccc(-c4ccccc4)cc3)cc2)c1O,2.7 min
10,Cc1cccc(C(=O)Nc2ccc(N3CCC(N4CCCCC4)CC3)c(C(=O)O)c2)c1,> 30 min
11,O=C(CCc1ccccc1)Nc1ccc(S(=O)(=O)Nc2nccs2)cc1,> 30 min
12,CN[C@@H]1C[C@@H](c2ccc(Cl)c(Cl)c2)c2ccccc21,17.2 min
13,CCOC(=O)c1cc(C)sc1NC(=O)c1ccc(Cl)s1,5.49 min
14,CCOC(=O)c1ccc(-n2cnc3cc(C(=O)N4CCCCC4)ccc32)cc1,1.7 min
15,CCOc1cc2ncc(C#N)c(Nc3ccc(OCc4ccccn4)c(Cl)c3)c2cc1NC(=O)C=CCN(C)C,> 30 min
16,COc1ccc2c(c1)CCc1c-2n[nH]c1C(=O)N1CCc2c(nc3cc(-c4ccccc4)[nH]n3c2=O)C1,27.3 min
17,Cc1ccc2oc(NC3=NC(c4[nH]ncc4Cl)C4=C(CCCC4=O)N3)nc2c1 (stereo not given),1.7 min
18,Cc1ccc(NS(=O)(=O)c2ccc3[nH]c4c(c3c2)CCCCCC4)cc1,2.08 min
19,COc1cc(C2c3c(oc4cc(C)c(C)cc4c3=O)C(=O)N2CCCN2CCOCC2)ccc1O (stereo not given),12.7 min
20,CCCn1cnc2cc(NCc3ccc(OC)cc3OC)ccc21,7.1 min
21,COc1ccc(-n2nc3c(N4CCCC(C(=O)NCCc5ccc(C)cc5)C4)nnc(C)c3c2C)cc1 (stereo not given),2.6 min
22,C=CCON=C(C[C@H]1O[C@@H]2O[C@]3(C)CC[C@@H]4[C@H](C)CC[C@@H]([C@H]1C)[C@@]24OO3)[C@H]1O[C@@H]2O[C@]3(C)CC[C@H]4[C@H](C)CC[C@@H]([C@@H]1C)[C@@]24OO3,2.8 min
23,CC(C)(C)c1ccc(-c2ccc(=O)n(CC(=O)NCCc3ccccc3)n2)cc1,1.6 min
24,COc1ccc(-n2c(C)c(C(C)=O)c3cc(O)ccc32)cc1,2.2 min
25,CC(C)c1ccc(S(=O)(=O)c2cnc(SCC(=O)Nc3ccc4c(c3)OCCO4)[nH]c2=O)cc1,3.84 min

row,SMILES,half-life
1,CCCNC(=O)Nc1ccc(Oc2ncnc3cc(OC)c(OC)cc23)cc1Cl,> 30 min
2,CC(C)CNC(=O)c1cn2cc(-c3ccccc3)sc2n1,> 30 min
3,COc1cccc(C(=O)Nc2nc(-c3nnn(-c4cc(C)ccc4C)c3C)ns2)c1,17.6 min
4,CCCCCn1c(=O)[nH]c2cc(C(=O)NCCCN3CCC(C)CC3)ccc2c1=O,16 min
5,CN(C)[C@@H]1CCN(c2cccc(Nc3nn4c(=O)c5ccccc5nc4s3)c2)C1,> 30 min
6,O=C1CCCC2=C1C(c1[nH]ncc1Cl)N=C(Nc1nc3cc([S+](=O)([O-])N4CCOCC4)ccc3o1)N2 (stereo not given),9.4 min
7,Cc1cc(-c2nnc3n2CCCCC3)c(C)n1-c1cccc(C#N)c1,8.1 min
8,CSc1ccc(/C=C/c2nc3ccccc3n2S(=O)(=O)c2cccc(Cl)c2)cc1,3.54 min
9,COc1ccc(OC)c(C(=O)Nc2nc(-c3ccccc3)cs2)c1,20 min
10,Cc1ccc(S(=O)(=O)NCc2ccccc2)cc1,1 min
11,CCCCCN(CCC12CC3CC(CC(C3)C1)C2)C(=O)NCCCc1ccncc1,3.7 min
12,CC(=O)Nc1ccc(NC(=O)C(NS(=O)(=O)c2ccc(Br)s2)c2ccccc2)cc1 (stereo not given),8.13 min
13,OC[C@H]1O[C@H](O[C@H]2O[C@H](CO)[C@@H](O)[C@H](O)[C@H]2O)[C@H](O)[C@@H](O)[C@@H]1O,> 30 min
14,Oc1ccccc1NCC(O)Cn1ccc2ccccc21 (stereo not given),2.37 min
15,Cc1ccc(NC(=O)N(Cc2cn(C)c3ccccc23)C2CCCCC2)cc1C,1.95 min
16,NC(=O)C1CCN(c2ncc(-c3ccc(Br)cc3)s2)CC1,3.6 min
17,NC(=O)C1CCN(c2nnc(-c3ccc(Br)cc3)s2)CC1,7.89 min
18,CC(C)(O)CCc1ccc(OCc2cc(-c3cccc(OC(F)F)c3)c3ncccc3c2)cc1,> 30 min
19,CC[C@H](CO)Nc1nc(NCc2ccccc2)c2ncn(C(C)C)c2n1,5.51 min
20,Cc1c(C(=O)OCCOc2ccccc2)[nH]c2c1C(=O)CC(c1ccccc1)C2 (stereo not given),5.25 min
21,C[C@@H]1COCCN1c1cc(C2(S(C)(=N)=O)CC2)nc(-c2ccnc3[nH]ccc23)n1 (stereo not given in full),> 30 min
22,Cc1cc(C)nc(NC(=S)N2CCN(c3cccc([N+](=O)[O-])c3)CC2)c1,17 min
23,Fc1ccc(Nc2nc(-n3ccnc3)nc3ccccc23)cc1F,> 30 min
24,O=C(Nc1ccc(S(=O)(=O)Nc2nccs2)cc1)c1cccc2ccccc12,> 30 min
25,C[C@@]12O[C@@H](C[C@]1(O)CO)n1c3ccccc3c3c4c(c5c6ccccc6n2c5c31)CNC4=O,> 30 min

row,SMILES,half-life
1,O=C(O)CCC(=O)Nc1nc(-c2ccccc2)cs1,> 30 min
2,CSc1cc2c(s1)c1cnn(Cc3cccc(N)c3)c(=O)c1n2C,3.6 min
3,CCN(CC)S(=O)(=O)c1cccc(C(=O)Nc2ccc(C#N)cc2)c1,3.8 min
4,Cc1ccc(S(=O)(=O)Nc2cnccc2C(=O)Nc2nc(-c3ccc(Cl)cc3)cs2)cc1,> 30 min
5,O=C(c1ccc2c(c1)ncn2-c1ccccc1)N1CCCCC1,16 min
6,C[C@@H]1[C@@H](CC(C[C@H]2O[C@@H]3O[C@]4(C)CC[C@@H]5[C@H](C)CC[C@@H]([C@H]2C)[C@@]35OO4)C(=O)NCc2ccc(F)cc2)O[C@@H]2O[C@]3(C)CC[C@H]4[C@H](C)CC[C@@H]1[C@@]24OO3 (stereo not given in full),2.4 min
7,O=C(C=Cc1cccnc1)NCCCCC1CCN(C(=O)c2ccccc2)CC1,12.2 min
8,C[C@@H](O)CNC(C)(C)CC(=O)N[C@@H]1CCc2ccccc2N(Cc2ccc(-c3ccccc3-c3nn[nH]n3)cc2)C1=O,> 30 min
9,CCOc1ccc(CCNC(=O)c2cc3ccccc3n2Cc2ccccn2)cc1OCC,1.5 min
10,Cc1ccccc1C(=O)N1CCc2cc(-c3nc(NC(=O)Cc4ccc5c(c4)OCO5)sc3C)ccc21,15.5 min
11,CCCNc1oc(-c2cccc3ccccc23)nc1C#N,13 min
12,O=C(Nc1nc(-c2ccccc2)cs1)c1ccncc1NS(=O)(=O)c1ccc(F)cc1F,6.5 min
13,CC(=O)c1c(C)[nH]c(C(=O)Nc2cccc([S+](=O)([O-])N3CCC(F)(F)CC3)c2)c1C,2.4 min
14,Cc1ccccc1CN1C2=NCCN2C(=O)C2=C1CCN(Cc1ccccc1)C2,6.82 min
15,CC(C)(N)C(=O)N[C@H](COCc1ccccc1)C(=O)N1CCC2(CC1)CN(S(C)(=O)=O)c1ccccc12,4.99 min
16,COc1ccc(C(=O)Nc2ccc3c(c2)N(C2CCCC2)C(=O)c2ccccc2S3)cc1OC,1.7 min
17,Cc1ccc(-c2nc(NCC(=O)Nc3cccc(C(=O)O)c3)c3ccccc3n2)cc1,> 30 min
18,O=S(=O)(Nc1nccs1)c1ccc(NCc2cccc(Cl)c2O)cc1,14 min
19,COc1ccc(OC)c(-c2cc(C(=O)N3CCN(c4ncccn4)CC3)c3ccccc3n2)c1,7.87 min
20,CN(C)c1ccc(-c2cc[nH]c(=O)c2N)cc1,> 30 min
21,Oc1ccc(CNc2ccccc2F)c2cccnc12,3.7 min
22,CC(=O)c1ccc(N2CCN(S(=O)(=O)c3ccc4c(c3)n(C)c(=O)n4C)CC2)cc1,> 30 min
23,CC1=C(C(=O)Nc2nncs2)C(c2nn(C)cc2Cl)N=C(Nc2nc3ccccc3o2)N1 (stereo not given),> 30 min
24,COc1cc([C@@H](CC(=O)O)c2ccc(C)c(CN3C[C@@H](C)Oc4ccccc4S3(=O)=O)c2)cc2nnn(C)c12,16 min
25,CCCNC(=O)[C@H]1O[C@H]1C(=O)N[C@H](C(=O)N1CCC[C@@H]1C(=O)OC)C(C)CC (stereo not given in full),> 30 min

row,SMILES,half-life
1,O=C(NCC1Cn2cccc2CN1Cc1cccnc1)Nc1ccccc1 (stereo not given),1.41 min
2,CC(=O)Nc1ccc(CN2CCc3nc(C(C)C)nc(-c4ccc(Cl)cc4)c3CC2)cc1,4.1 min
3,O=C(c1cccs1)c1nonc1C(=O)c1cccs1,1.49 min
4,CNC1(c2ccccc2Cl)CCCCC1=O (stereo not given),4.44 min
5,COc1ccc(NC(=O)c2[nH]c(C)c(C(C)=O)c2C)cc1S(=O)(=O)N(C)C,> 30 min
6,Cc1ccc(C)c(S(=O)(=O)NCC2CN(Cc3ccccc3)CCO2)c1 (stereo not given),1.6 min
7,Cc1c(C)n(Cc2ccccc2)c2ccc(C(=O)OCCN(C)C)cc12,1.78 min
8,CCOc1ccccc1C(=O)Nc1ccncc1C(=O)Nc1cccc(S(=O)(=O)C(F)(F)F)c1,> 30 min
9,COc1cccc(CNc2ccc([S+](=O)([O-])Nc3cc4ccccc4s3)cc2)c1O,3.5 min
10,COC(=O)c1cc2occc2n1Cc1nc(-c2ccc(C)cc2)oc1C,3.86 min
11,O=C(Nc1ccc(F)c(C(F)(F)F)c1)Nc1nnc(-c2ccncc2)s1,> 30 min
12,CCN(CC)C(=O)N1c2ccccc2C=Cc2ccccc21,1.07 min
13,N=c1c2c(ncn1-c1ccccc1)Oc1ccc3ccccc3c1C2c1ccc2c(c1)CCO2 (stereo not given),10.1 min
14,O=[S+]([O-])(Nc1cccc2ccccc12)c1ccc(NCc2ccc(Cl)cc2O)cc1,5.4 min
15,O=C(Nc1nc(-c2ccccc2)cs1)c1ccncc1NS(=O)(=O)c1cccs1,12 min
16,Cc1noc([C@@H]2CN(C(=O)c3nn(C)c4ccccc34)C[C@H]2CO)n1,> 30 min
17,Cc1ccc(C2=CSC(NC(=O)CSc3nncn3C)=NN2)cc1,1.8 min
18,Clc1ccccc1-c1nnc2sc(-c3ccc4c(c3)OCO4)nn12,1.7 min
19,CCCCN(CC)CCNC(=O)c1cc2c(-c3ccc(Cl)cc3)nn(C)c2s1,3.76 min
20,O=C1Nc2ccc(Cl)cc2/C1=C\c1cc(Cl)c(O)c(Cl)c1,> 30 min
21,CCCc1oc2ccc(NS(=O)(=O)c3ccc(OC)cc3)cc2c1C(=O)OCC,1.37 min
22,CCCN1CNc2c(c(=O)[nH]c(=S)n2CCc2ccc(OC)c(OC)c2)C1,18 min
23,CCC(=O)NC(c1ccc(OC)cc1)c1cc(Cl)c2cccnc2c1O (stereo not given),4.41 min
24,Oc1ccc(Nc2nc(-c3ccncc3)nc3ccccc23)cc1F,28 min
25,O=C(Nc1ccc(N2CCN(c3ncccc3C(F)(F)F)CC2)nc1)c1cccs1,10.3 min
